Data published in patent US20220365099A1, “DERIVATIZATION OF BETA-LACTAM ANTIBIOTICS FOR MASSSPEC MEASUREMENTS IN PATIENT SAMPLES” (Roche Diagnostics Operations, Inc., priority 2019, published 2022).

Experiment: Stability in water at room temperature, LC-MS/MS peak areas over 16 h
Type: physicochemical
Details: 5 μg/ml in water, timepoints 0, 2, 4, 6, 8 and 16 h
Experimental: The stability of native Piperacillin as well as its hydrolyzed forms was investigated (compounds 5, 9a and 9b, respectively. From the hydrolyzation pathway of Piperacillin (see schematic drawing in FIG. 1) it is obvious that this compound hydrolyzed both on the piperazin ring and the lactam moiety, only one of both compounds is monitored to account for the loss of native Piperacillin). To this end, these compounds were freshly weighed and dissolved in water at a concentration of 1 mg/mL by rolling for 15 minutes at room temperature. Subsequently, these compounds were diluted to 5 μg/ml and measured with a suitable LC-MS/MS method at timepoints 0, 2, 4, 6, 8 and 16 h. […] The peaks were integrated using MultiQuant software and the areas of these peaks depicted in the graphs in FIGS. 2A and 2B.
The stability of double butylamide variants of Piperacillin (compound 7, see FIG. 4) was investigated at 2 MRMs using the identical protocol as in Examples 1.

obtained peak-areas over time: decreasing
Compound: CCN1CCN(C(=O)N[C@@H](C(=O)N[C@@H]2C(=O)N3[C@@H]2SC(C)(C)[C@@H]3C(=O)O)c2ccccc2)C(=O)C1=O [Piperacillin]
